Experimental data reported in ChEMBL document CHEMBL3259791, “Discovery of (E)-3-((styrylsulfonyl)methyl)pyridine and (E)-2-((styrylsulfonyl)methyl)pyridine derivatives as anticancer agents: synthesis, structure-activity relationships, and biological activities” (J Med Chem, 2014).
Blank lines part the entries; values can stand above or below the molecule they belong to. Active and inactive are the calls of the source. The calls are words filed in the database; no cut-off is given here.

Key:
[1] = Octanol-buffer partition coefficient, log D of the compound at pH 7.4 by shake-flask method; assay type: physicochemical
[2] = Aqueous solubility of the compound by turbidimetric solubility assay; assay type: physicochemical; conditions: buffer
[3] = Apparent permeability across apical to basolateral side in human Caco2 cells; assay type: ADME, cell-based; conditions: Caco-2
[4] = Apparent permeability across basolateral to apical side in human Caco2 cells; assay type: ADME, cell-based; conditions: Caco-2
[5] = Half life in rat liver microsomes; assay type: ADME
[6] = molecular target: Voltage-gated inwardly rectifying potassium channel KCNH2 (Homo sapiens, UniProt Q12809); assay: Inhibition of human ERG expressed in CHO cells
[7] = AUC (0 to t) in mouse at 40 mg/kg, po after 24 hrs; assay type: ADME, organism-based; parameters: time < 24 hr, dose 40 mg/kg, route oral; conditions: plasma
[8] = Elimination half life in mouse at 40 mg/kg, po after 24 hrs; assay type: ADME, organism-based; parameters: dose 40 mg/kg, route oral; conditions: in vivo, read-out: beta t1/2 (converted)
[9] = Oral bioavailability (0 to t) in mouse at 40 mg/kg after 24 hrs; assay type: ADME, organism-based; conditions: in vivo
[10] = Oral bioavailability (0 to infinity) in mouse at 40 mg/kg after 24 hrs; assay type: ADME, organism-based; conditions: in vivo
A2780 [11] = assay: Antitumor activity against human A2780 cells xenografted in mouse assessed as delay tumor growth at 50 mg/kg, po administered every second day for 2 weeks; assay type: functional
A2780 [12] = assay: Antitumor activity against human A2780 cells xenografted in mouse assessed as increase in life span at 50 mg/kg, po administered every second day for 2 weeks; assay type: functional
WI-38 [13] = assay: Selectivity ratio of IC50 for human WI38 cells to IC50 for ER negative human MDA-MB-231 cells; assay type: functional
HeLa [14] = assay: Selectivity ratio of IC50 for human WI38 cells to IC50 for human HeLa cells; assay type: functional
DU-145 = assay: Selectivity ratio of IC50 for human WI38 cells to IC50 for AR negative human DU145 cells; assay type: functional
LNCaP [15] = assay: Selectivity ratio of IC50 for human WI38 cells to IC50 for AR positive human LNCAP cells; assay type: functional
HeLa [16] = assay: Ratio of ON01910 IC50 to compound IC50 for human HeLa cells; assay type: functional
LNCaP [17] = assay: Ratio of ON01910 IC50 to compound IC50 for AR positive human LNCAP cells; assay type: functional
HCT-116 = assay: Ratio of ON01910 IC50 to compound IC50 for human HCT116 cells; assay type: functional
A2780 [18] = assay: Ratio of ON01910 IC50 to compound IC50 for human A2780 cells; assay type: functional
MDA-MB-231 = assay: Antiproliferative activity against ER negative human MDA-MB-231 cells assessed as cell growth inhibition after 72 hrs by MTT assay; assay type: functional; conditions: MDA-MB-231, 72 h
WI-38 [19] = assay: Antiproliferative activity against human WI38 cells assessed as cell growth inhibition after 72 hrs by MTT assay; assay type: functional; conditions: WI-38, 72 h
A2780 [20] = assay: Cell cycle arrest in human A2780 cells assessed as accumulation at subG1 phase at 0.06 uM after 24 hrs by flow cytometric analysis (reference value: 0.62%); assay type: functional
A2780 [21] = assay: Cell cycle arrest in human A2780 cells assessed as accumulation at G2/M phase at […] after 24 hrs by flow cytometric analysis (reference value: 21.81%); assay type: functional
A2780 [22] = assay: Cell cycle arrest in human A2780 cells assessed as accumulation at subG1 phase at 1 uM after 24 hrs by flow cytometric analysis (reference value: 0.62%); assay type: functional
A2780 [23] = assay: Cell cycle arrest in human A2780 cells assessed as accumulation at G1 phase at 1 uM after 24 hrs by flow cytometric analysis (reference value: 54.89%); assay type: functional
WI-38 [24] = assay: Cell cycle arrest in human WI38 cells assessed as accumulation at subG1 phase at 0.06 uM after 24 hrs by flow cytometric analysis (reference value: 10.53%); assay type: functional
WI-38 [25] = assay: Cell cycle arrest in human WI38 cells assessed as accumulation at G1 phase at 0.06 uM after 24 hrs by flow cytometric analysis (reference value: 55.89%); assay type: functional
WI-38 [26] = assay: Cell cycle arrest in human WI38 cells assessed as accumulation at S phase at 0.06 uM after 24 hrs by flow cytometric analysis (reference value: 16.25%); assay type: functional
WI-38 [27] = assay: Cell cycle arrest in human WI38 cells assessed as accumulation at subG1 phase at […] after 24 hrs by flow cytometric analysis (reference value: 10.53%); assay type: functional
WI-38 [28] = assay: Cell cycle arrest in human WI38 cells assessed as accumulation at G2/M phase at […] after 24 hrs by flow cytometric analysis (reference value: 17.36%); assay type: functional
WI-38 [29] = assay: Cell cycle arrest in human WI38 cells assessed as accumulation at subG1 phase at 1 uM after 24 hrs by flow cytometric analysis (reference value: 10.53%); assay type: functional
WI-38 [30] = assay: Cell cycle arrest in human WI38 cells assessed as accumulation at G2/M phase at 1 uM after 24 hrs by flow cytometric analysis (reference value: 17.36%); assay type: functional
A2780 [31] = assay: Induction of apoptosis in human A2780 cells assessed as necrotic cells at […] after 48 hrs by annexin V/PI double staining (reference value: 0.53%); assay type: functional
A2780 [32] = assay: Induction of apoptosis in human A2780 cells assessed as late-stage apoptotic cells at 1 uM after 48 hrs by annexin V/PI double staining (reference value: 10.20%); assay type: functional
WI-38 [33] = assay: Induction of apoptosis in human WI38 cells assessed as viable cells at 0.06 uM after 48 hrs by annexin V/PI double staining (reference value: 80.59%); assay type: functional; conditions: WI-38, 48 h, read-out: Activity
WI-38 [34] = assay: Induction of apoptosis in human WI38 cells assessed as early-stage apoptotic cells at […] after 48 hrs by annexin V/PI double staining (reference value: 2.16%); assay type: functional
WI-38 [35] = assay: Induction of apoptosis in human WI38 cells assessed as late-stage apoptotic cells at 1 uM after 48 hrs by annexin V/PI double staining (reference value: 16.26%); assay type: functional
WI-38 [36] = assay: Induction of apoptosis in human WI38 cells assessed as viable cells at 1 uM after 48 hrs by annexin V/PI double staining (reference value: 80.59%); assay type: functional; conditions: WI-38, 48 h, read-out: Activity
WI-38 [37] = assay: Induction of apoptosis in human WI38 cells assessed as caspase-3/7 activation up to 1 uM after 24 hrs by using Apo-ONE homogeneous caspase-3/7 kit; assay type: functional, cell-based
A2780 [38] = assay: Reduction in CDC25C level in human A2780 cells at 0.03 uM after 24 hrs by Western blot analysis; assay type: functional, cell-based
A2780 [39] = assay: Reduction in Mcl1 level in human A2780 cells at 0.03 uM after 24 hrs by Western blot analysis; assay type: functional, cell-based
[40] = Dissociation constant, pKa of the compound by pH-metric method; assay type: physicochemical
[41] = Cmax in mouse at 10 mg/kg, po after 24 hrs; assay type: ADME, organism-based; parameters: dose 10 mg/kg, route oral; conditions: in vivo
[42] = Oral bioavailability (0 to t) in mouse at 10 mg/kg after 24 hrs; assay type: ADME, organism-based; conditions: in vivo
A2780 [43] = assay: Reduction in CDC25C level in human A2780 cells at 1 uM after 24 hrs by Western blot analysis; assay type: functional, cell-based
A2780 [44] = assay: Reduction in Mcl1 level in human A2780 cells at 1 uM after 24 hrs by Western blot analysis; assay type: functional, cell-based

Chain of Voltage-gated inwardly rectifying potassium channel KCNH2 (Q12809 whole entry): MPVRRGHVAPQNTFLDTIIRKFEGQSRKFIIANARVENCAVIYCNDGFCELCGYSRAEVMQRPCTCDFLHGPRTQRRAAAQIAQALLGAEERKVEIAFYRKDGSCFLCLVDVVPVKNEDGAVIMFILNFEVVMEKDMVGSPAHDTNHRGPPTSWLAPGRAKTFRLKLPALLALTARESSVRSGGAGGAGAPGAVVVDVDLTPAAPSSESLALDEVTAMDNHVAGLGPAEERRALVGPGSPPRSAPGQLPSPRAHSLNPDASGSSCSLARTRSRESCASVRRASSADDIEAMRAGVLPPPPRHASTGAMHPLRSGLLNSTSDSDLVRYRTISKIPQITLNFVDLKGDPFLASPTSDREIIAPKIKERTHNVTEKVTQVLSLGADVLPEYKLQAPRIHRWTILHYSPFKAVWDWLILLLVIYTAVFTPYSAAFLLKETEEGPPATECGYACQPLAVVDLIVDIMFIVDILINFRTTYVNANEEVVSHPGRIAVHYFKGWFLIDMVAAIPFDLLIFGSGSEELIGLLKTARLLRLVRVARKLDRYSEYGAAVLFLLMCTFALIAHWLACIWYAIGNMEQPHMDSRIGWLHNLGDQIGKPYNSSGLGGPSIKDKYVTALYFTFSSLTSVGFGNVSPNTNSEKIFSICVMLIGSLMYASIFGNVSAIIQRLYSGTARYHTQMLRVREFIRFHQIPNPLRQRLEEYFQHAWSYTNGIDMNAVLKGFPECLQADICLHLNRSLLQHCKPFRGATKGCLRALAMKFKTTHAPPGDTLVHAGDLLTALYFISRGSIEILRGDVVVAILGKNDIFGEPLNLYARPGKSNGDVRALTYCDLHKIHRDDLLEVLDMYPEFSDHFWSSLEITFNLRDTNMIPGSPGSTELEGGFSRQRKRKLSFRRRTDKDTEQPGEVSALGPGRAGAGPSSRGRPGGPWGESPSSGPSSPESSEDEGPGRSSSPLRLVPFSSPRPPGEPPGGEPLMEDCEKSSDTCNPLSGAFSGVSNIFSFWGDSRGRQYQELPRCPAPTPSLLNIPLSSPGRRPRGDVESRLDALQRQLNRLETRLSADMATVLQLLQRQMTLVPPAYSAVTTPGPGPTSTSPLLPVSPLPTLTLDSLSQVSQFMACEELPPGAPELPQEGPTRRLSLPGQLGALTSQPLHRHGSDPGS

SMILES: COc1cc(OC)c(/C=C/S(=O)(=O)Cc2ccc(OC)c(N)n2)c(OC)c1
logD [1]: 2.41
solubility kinetic [2]: > 100 µM
Papp A→B [3]: 33.1 ×10⁻⁶ cm/s
Papp B→A [4]: 26.2 ×10⁻⁶ cm/s
half-life [5]: 0.25 h
IC50 [6]: > 25 µM
AUC(0-t) at 24 h [7]: 23.1 µM·h
half-life [8]: 77.1 h
bioavailability [9]: 44%
bioavailability [10]: 68%
Activity (A2780 [11]): 52%
Activity (A2780 [12]): 80%
Ratio IC50 (WI-38 [13]): >1400
Ratio IC50 (HeLa [14]): >1400
Ratio IC50 (DU-145): >1400
Ratio IC50 (LNCaP [15]): >1400
Ratio IC50 (HeLa [16]): 10
Ratio IC50 (LNCaP [17]): 10
Ratio IC50 (HCT-116): 10
Ratio IC50 (A2780 [18]): 10
GI50 (MDA-MB-231): 0.007 µM
GI50 (WI-38 [19]): > 10 µM
Activity (A2780 [20]): 10.06%
Activity (A2780 [21]): 50.94%
Activity (A2780 [22]): 2.71%
Activity (A2780 [23]): 13.02%
Activity (WI-38 [24]): 13.31%
Activity (WI-38 [25]): 54.04%
Activity (WI-38 [26]): 9.81%
Activity (WI-38 [27]): 12.08%
Activity (WI-38 [28]): 24.87%
Activity (WI-38 [29]): 8.09%
Activity (WI-38 [30]): 24.94%
Activity (A2780 [31]): 1.97%
Activity (A2780 [32]): 21.09%
viability at 0.06 µM (WI-38 [33]): 82.2%
Activity (WI-38 [34]): 1.49%
Activity (WI-38 [35]): 15.52%
viability at 1 µM (WI-38 [36]): 79.8%
Activity (WI-38 [37]): inactive
inhibition (A2780 [38]): Active
inhibition (A2780 [39]): Active
pKa [40]: 4.67

logD [1]: 1.53
solubility kinetic [2]: > 100 µM
Papp A→B [3]: 3.15 ×10⁻⁶ cm/s
Papp B→A [4]: 53.4 ×10⁻⁶ cm/s
half-life [5]: 1.88 h
Cmax [41]: 2100 nM
bioavailability [42]: 50%
GI50 (MDA-MB-231): 0.641 µM
pKa [40]: 7.28
SMILES: COc1cc(OC)c(/C=C/S(=O)(=O)Cc2ccc(OC)c(NS(C)(=O)=O)n2)c(OC)c1
IC50 [6]: > 25 µM
GI50 (WI-38 [19]): > 10 µM
Activity (A2780 [20]): 0.95%
Activity (A2780 [21]): 19.36%
Activity (A2780 [22]): 7.27%
Activity (A2780 [23]): 14.2%
Activity (WI-38 [24]): 10.05%
Activity (WI-38 [25]): 51.48%
Activity (WI-38 [26]): 14.51%
Activity (WI-38 [27]): 11.06%
Activity (WI-38 [28]): 14.08%
Activity (WI-38 [29]): 5.66%
Activity (WI-38 [30]): 26.14%
Activity (A2780 [31]): 0.48%
Activity (A2780 [32]): 24.63%
viability at 0.06 µM (WI-38 [33]): 78.1%
Activity (WI-38 [34]): 2.86%
Activity (WI-38 [35]): 21.15%
viability at 1 µM (WI-38 [36]): 67%
Activity (WI-38 [37]): inactive
inhibition (A2780 [43]): Active
inhibition (A2780 [44]): Active
